The experiment concerns the target IRAK4 (Homo sapiens (Human), UniProt Q9NWZ3). Description: IRAK4 Kinase Assay (IMAP fluorescence polarization). To be noted: 0.5 nM GST tagged IRAK4, 100 μM ATP, 100 nM fluorescent peptide substrate RP7030, 30 minutes at 25° C. It counts as biochemical. The protocol: The kinase activity of IRAK4 is determined by its ability to catalyze the phosphorylation of a fluorescent polypeptide substrate. The extent of phosphorylation is measured using the IMAP technology (Molecular Devices) where the phosphorylated fluorescent substrate binds to the large M(III)-based nanoparticles which reduces the rotational speed of the substrate and thus increases its fluorescent polarization (FP).
20 μL reaction mixture contains 10 mM TriHCl, pH 7.2, 0.5 nM GST tagged IRAK4 (SignalChem), 100 nM fluorescent peptide substrate (RP7030, Molecular Devices), 100 μM ATP, 1 mM DDT, 1 mM MgCl2, and 0.01% Tween 20. The reaction is initiated by the addition of ATP. After incubation for 30 minutes at 25° C., 60 μL of Progressive IMAP Reagent (Molecular Devices) is added to stop the reaction. Change in RP7030's FP is determined by a FP reader (Analyst HT, LJL BioSystems).
(In general: Fluorescence polarisation rises when a labelled molecule tumbles more slowly, as on binding a larger partner.)
IRAK4, sequence (Q9NWZ3 whole entry): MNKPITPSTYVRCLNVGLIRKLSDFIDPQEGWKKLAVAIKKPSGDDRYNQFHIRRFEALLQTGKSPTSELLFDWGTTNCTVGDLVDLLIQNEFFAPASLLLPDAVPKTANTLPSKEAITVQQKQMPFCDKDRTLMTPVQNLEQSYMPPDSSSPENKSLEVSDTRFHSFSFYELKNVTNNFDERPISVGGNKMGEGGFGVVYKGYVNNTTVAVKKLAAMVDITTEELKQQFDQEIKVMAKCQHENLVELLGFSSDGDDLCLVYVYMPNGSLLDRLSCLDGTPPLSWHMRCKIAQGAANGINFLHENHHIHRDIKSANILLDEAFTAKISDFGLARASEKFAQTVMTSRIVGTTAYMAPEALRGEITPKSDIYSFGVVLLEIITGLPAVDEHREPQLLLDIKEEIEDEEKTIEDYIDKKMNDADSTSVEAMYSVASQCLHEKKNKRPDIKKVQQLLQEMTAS
For the compound `CN(C)[C@H]1CC[C@H](Nc2ncnc3ccc(-c4cnn(CCN5CCOCC5)c4)cc23)CC1` [Example 1-15, trans-N,N-dimethyl-N′-(6-{1-[2-(morpholin-4-yl)ethyl]-1H-pyrazol-4-yl}quinazolin-4-yl)cyclohexane-1,4-diamine], the half-inhibitory concentration (IC50) (usually the concentration needed to halve the response being measured) came to 1320 nM. Turning to `CN(C)[C@H]1CC[C@H](Nc2ncnc3ccc(-c4cnn(C5CCCCO5)c4)cc23)CC1` (stereo partly drawn) [Example 1-16, trans-N,N-dimethyl-N′-{6-[1-(tetrahydro-2H-pyran-2-yl)-1H-pyrazol-4-yl]quinazolin-4-yl}cyclohexane-1,4-diamine], the IC50 was 217 nM. In the case of `CN(C)[C@H]1CC[C@H](Nc2ncnc3ccc(-c4cnn(Cc5ccccn5)c4)cc23)CC1` [Example 1-17, trans-N,N-dimethyl-N′-{6-[1-(pyridin-2-ylmethyl)-1H-pyrazol-4-yl]quinazolin-4-yl}cyclohexane-1,4-diamine] it was 372 nM. Under `CCn1cc(-c2ccc3ncnc(N[C@H]4CC[C@H](N(C)C)CC4)c3c2)cn1` [Example 1-18, trans-N′-[6-(1-ethyl-1H-pyrazol-4-yl)quinazolin-4-yl]-N,N-dimethylcyclohexane-1,4-diamine] stands 92 nM; under `CN(C)[C@H]1CC[C@H](Nc2ncnc3ccc(-c4cnn(Cc5ccncc5)c4)cc23)CC1` [Example 1-19, trans-N,N-dimethyl-N′-{6-[1-(pyridin-4-ylmethyl)-1H-pyrazol-4-yl]quinazolin-4-yl}cyclohexane-1,4-diamine], 358 nM. In turn, `CN(C)[C@H]1CC[C@H](Nc2ncnc3ccc(-c4ccncc4C#N)cc23)CC1` [Example 1-20, 4-(4-{[trans-4-(dimethylamino)cyclohexyl]amino}quinazolin-6-yl)pyridine-3-carbonitrile] registered a half-maximal inhibitory concentration (IC50) of 85 nM. `Cc1cnccc1-c1ccc2ncnc(N[C@H]3CC[C@H](N(C)C)CC3)c2c1` [Example 1-21, trans-N,N-dimethyl-N′-[6-(3-methylpyridin-4-yl)quinazolin-4-yl]cyclohexane-1,4-diamine] showed an IC50 of 155 nM.

The compound `CN(C)[C@H]1CC[C@H](Nc2ncnc3ccc(-c4cnccc4C#N)cc23)CC1` [Example 1-22, 3-(4-{[trans-4-(dimethylamino)cyclohexyl]amino}quinazolin-6-yl)pyridine-4-carbonitrile] displayed an IC50 of 54 nM. In the case of `CN(C)[C@H]1CC[C@H](Nc2ncnc3ccc(-c4cncc(N5CCOCC5)c4)cc23)CC1` [Example 1-23, trans-N,N-dimethyl-N′-{6-[5-(morpholin-4-yl)pyridin-3-yl]quinazolin-4-yl}cyclohexane-1,4-diamine] it was 498 nM; in that of `Cc1noc(C)c1-c1ccc2ncnc(N[C@H]3CC[C@H](N(C)C)CC3)c2c1` [Example 1-24, trans-N′-[6-(3,5-dimethylisoxazol-4-yl)quinazolin-4-yl]-N,N-dimethylcyclohexane-1,4-diamine], 333 nM; in that of `CN(C)[C@H]1CC[C@H](Nc2ncnc3ccc(-c4cncnc4)cc23)CC1` [Example 1-25, trans-N,N-dimethyl-N′-[6-(pyrimidin-5-yl)quinazolin-4-yl]cyclohexane-1,4-diamine], 3 nM.

`Cc1onc(-c2ccccc2)c1-c1ccc2ncnc(N[C@H]3CC[C@H](N(C)C)CC3)c2c1` [Example 1-26, trans-N,N-dimethyl-N′-[6-(5-methyl-3-phenylisoxazol-4-yl)quinazolin-4-yl]cyclohexane-1,4-diamine]: inhibition was half-maximal at 698 nM (IC50). In the case of `CN(C)[C@H]1CC[C@H](Nc2ncnc3ccc(-c4ccc(C#N)nc4)cc23)CC1` [Example 1-27, 5-(4-{[trans-4-(dimethylamino)cyclohexyl]amino}quinazolin-6-yl)pyridine-2-carbonitrile] it was 43 nM; in that of `CN(C)[C@H]1CC[C@H](Nc2ncnc3ccc(-c4ccc(O)nc4)cc23)CC1` [Example 1-28, 5-(4-{[trans-4-(dimethylamino)cyclohexyl]amino}quinazolin-6-yl)pyridin-2-ol], 7 nM.

The record behind these values is US9969749B2, “Inhibitors of IRAK4 activity” (MERCK SHARP & DOHME CORP., priority 2014, dated 2018).
